What was measured:
[1] = oral administration; cited from earlier work
[2] = Prediction of naloxone plasma concentrations with Excel: non-compartmental analysis on mean profiles scaled to the proposed doses; design: species or system human
clinical = conditions: both, human, plasma
[3] = Safety assessment (adverse events, clinical laboratory results, vital signs, ECGs) in the 4-way crossover study; format: in vivo, human
[4] = Prediction of naloxone plasma concentrations with WinNonlin Modeling: compartmental pharmacokinetic model and simulation; design: species or system human; conditions: 36 h
Protocol: The corresponding C max and AUCt-values are as follows (for the total time period of 36 h): […]

[5] = intranasal administration
[6] = predicted for 0.4 mg IV, based on 1 mg IV data excluding the outlying subject
[7] = predicted for 0.4 mg IV, based on 1 mg IV data, all subjects
[8] = predicted for 1.2 mg IN, based on 8 mg IN data
[9] = predicted for 1.2 mg IN, based on 16 mg IN data
[10] = predicted for 1.6 mg IN, based on 8 mg IN data
[11] = predicted for 1.6 mg IN, based on 16 mg IN data
[12] = another subject, Day 44, normal before study drug, rated possibly related

For `C=CCN1CC[C@]23c4c5ccc(O)c4O[C@H]2C(=O)CC[C@@]3(O)[C@H]1C5` [naloxone], the oral bioavailability [1] is given as under 3%, the AUCt [2, 6] is given as 3.8122 ng·h/mL and the Cmax [2, 6] is given as 2.8817 ng/mL. The AUCt [2, 7] was 4.5789 ng·h/mL, the Cmax [2, 7] was 4.7352 ng/mL and the AUCt [2, 8] was 3.1596 ng·h/mL. It also gave a Cmax [2, 8] of 1.5352 ng/mL, an AUCt [2, 9] of 2.585 ng·h/mL and a Cmax [2, 9] of 1.0525 ng/mL. For the same compound, the AUCt [2, 10] was 4.2128 ng·h/mL, the Cmax [2, 10] was 2.0469 ng/mL and the AUCt [2, 11] was 3.4467 ng·h/mL. For the same compound, the Cmax [2, 11] was 1.4034 ng/mL, the bioavailability (clinical; other: intranasal, 8 mg) was 32% and the bioavailability (clinical; other: intranasal, 16 mg) was 27%. For the same compound, the bioavailability (clinical; other: sublingual, 16 mg) was about 2%, the “treatment-emergent adverse events (TEAEs)” value ([3]; 1 mg intravenous) was 4 TEAEs and the “treatment-emergent adverse events (TEAEs)” value ([3]; 8 mg intranasal) was 3 TEAEs. For the same compound, the “treatment-emergent adverse events (TEAEs)” value ([3]; 16 mg intranasal) was 5 TEAEs, the “treatment-emergent adverse events (TEAEs)” value ([3]; 16 mg sublingual) was 1 TEAE and the “changes in ECG” value ([3]; all treatments) was “No clinically relevant changes in ECG occurred”. The “deaths, serious adverse events, other significant adverse events” value ([3]; all treatments) was “no deaths, serious adverse events, or other significant adverse events”, the “markedly abnormal change in blood pressure” value ([3]; all treatments) was “one subject” and the “markedly abnormal changes in pulse rate” value ([3]; all treatments) was “Three subjects”. The “overall trend in abnormal vital sign changes” value ([3]; all treatments) was “No overall trend in abnormal vital sign changes was observed”, the “markedly abnormal high SGPT value” [3, 12] was 371 U/l and the “markedly abnormal high total bilirubin value” [3, 12] was 39.33 µmol/L. For the same compound, the “markedly abnormal low potassium value” [3, 12] was 3.3 mmol/L, the “TEAEs of vasovagal attack” value ([3]; intranasal application (one after 8 mg, one after 16 mg)) was 2 subjects and the “TEAEs of vasovagal attack” value ([3]; intravenous bolus 1 mg) was 1 subject. For the same compound, the “markedly abnormal high triglyceride value” ([3]; one subject, Day 44, 4.189 mmol/l on Day -9 before study drug) was 8.355 mmol/L, the AUCt [4, 8] was 2.8762 ng·h/mL and the Cmax [4, 8] was 1.5995 ng/mL. For the same compound, the AUCt [4, 9] was 2.1631 ng·h/mL, the Cmax [4, 9] was 0.8935 ng/mL and the AUCt [4, 10] was 3.835 ng·h/mL. It also gave a Cmax [4, 10] of 2.1326 ng/mL, an AUCt [4, 11] of 2.8841 ng·h/mL and a Cmax [4, 11] of 1.1913 ng/mL. For the same compound, the “peak plasma concentrations attained as early as (time after dosing)” value ([5]; earliest) was 6 min and the “time to peak plasma concentrations, median” value ([5]; median) was 18 min.
